Data: publication PMC12484987 (Scientific Reports, 2025)
Values joined by “and” are separate entries in the source; they are usually repeats but may differ in a detail not shown here. Equal values may be shown once. Read-outs that look alike come from different tables or passages of the source.

How the values were obtained:
in vitro = conditions: human, MRC-5 cells (normal embryonic lung cells)
[1] = tested on: T47-D (Hormone-dependent breast cancer); assay: cells; conditions: Homo sapiens, T47D, 48 h, read-out: IC50 cytotoxic activity
[2] = tested on: HeLa (Cervical carcinoma); assay: cells; conditions: Homo sapiens, 48 h, read-out: IC50 cytotoxic activity
[3] = tested on: H69AR (Lung cancer, multidrug resistance); conditions: for Selectivity index SI = IC50(normal cell)/IC50(cancer cell line): MRC-5 vs H69AR; for Percentage cytotoxicity: H69AR, at maximum tested concentration of 50 µg/mL
[4] = tested on: HeLa (Cervical carcinoma); conditions: for Selectivity index SI = IC50(normal cell)/IC50(cancer cell line): MRC-5 vs HeLa; for Percentage cytotoxicity: HeLa, at maximum tested concentration of 50 µg/mL
[5] = tested on: MDA-MB-231 (Hormone-independent breast cancer); assay: cells; conditions: Homo sapiens, MDA-MB-231, 48 h, read-out: IC50 cytotoxic activity
[6] = tested on: T47-D (Hormone-dependent breast cancer); conditions: for Selectivity index SI = IC50(normal cell)/IC50(cancer cell line): MRC-5 vs T47-D; for Percentage cytotoxicity: T47-D, at maximum tested concentration of 50 µg/mL
A549 (Lung carcinoma) [7] = assay: cells; conditions: Homo sapiens, A549, 48 h, read-out: IC50 cytotoxic activity
S102 (Thai liver cancer) [8] = assay: cells; conditions: Homo sapiens, 48 h, read-out: IC50 cytotoxic activity
[9] = tested on: MDA-MB-231 (Hormone-independent breast cancer); conditions: for Selectivity index SI = IC50(normal cell)/IC50(cancer cell line): MRC-5 vs MDA-MB-231; for Percentage cytotoxicity: MDA-MB-231, at maximum tested concentration of 50 µg/mL
[10] = tested on: MOLT-3 (Acute lymphoblastic leukemia); conditions: for Selectivity index SI = IC50(normal cell)/IC50(cancer cell line): MRC-5 vs MOLT-3; for Percentage cytotoxicity: MOLT-3, at maximum tested concentration of 50 µg/mL
[11] = tested on: H69AR (Lung cancer, multidrug resistance); assay: cells; conditions: Homo sapiens, 48 h, read-out: IC50 cytotoxic activity
A549 (Lung carcinoma) [12] = conditions: for Selectivity index SI = IC50(normal cell)/IC50(cancer cell line): MRC-5 vs A549; for Percentage cytotoxicity: A549, at maximum tested concentration of 50 µg/mL
[13] = tested on: MOLT-3 (Acute lymphoblastic leukemia); assay: cells; conditions: Homo sapiens, MOLT-3, 48 h, read-out: IC50 cytotoxic activity
HL-60 (promyeloblast) [14] = conditions: for Selectivity index SI = IC50(normal cell)/IC50(cancer cell line): MRC-5 vs HL-60; for Percentage cytotoxicity: HL-60, at maximum tested concentration of 50 µg/mL
[15] = tested on: HuCCA-1 (Cholangiocarcinoma); assay: cells; conditions: Homo sapiens, HuCC-A1, 48 h, read-out: IC50 cytotoxic activity
HepG2 (Hepatocarcinoma) [16] = conditions: for Selectivity index SI = IC50(normal cell)/IC50(cancer cell line): MRC-5 vs HepG2; for Percentage cytotoxicity: HepG2, at maximum tested concentration of 50 µg/mL
S102 (Thai liver cancer) [17] = conditions: for Selectivity index SI = IC50(normal cell)/IC50(cancer cell line): MRC-5 vs S102; for Percentage cytotoxicity: S102, at maximum tested concentration of 50 µg/mL
[18] = tested on: MRC-5 (normal embryonic lung cell); conditions: for Percentage cytotoxicity: MRC-5, at maximum tested concentration of 50 µg/mL; for toxicity toward normal embryonic lung cells (MRC-5), in words: MRC-5, up to 50 µg/mL
[19] = tested on: HuCCA-1 (Cholangiocarcinoma); conditions: for Selectivity index SI = IC50(normal cell)/IC50(cancer cell line): MRC-5 vs HuCCA-1; for Percentage cytotoxicity: HuCCA-1, at maximum tested concentration of 50 µg/mL
HL-60 (promyeloblast) [20] = assay: cells; conditions: Homo sapiens, HL-60, 48 h, read-out: IC50 cytotoxic activity
HepG2 (Hepatocarcinoma) [21] = assay: cells; conditions: Homo sapiens, HepG2, 48 h, read-out: IC50 cytotoxic activity
HIV-1 RT [22] = biological target: T1, HIV-1 RT (Human immunodeficiency virus type 1 group M subtype B, UniProt P04585); conditions: cited from earlier work
HIV-1 RT [23] = biological target: T1, HIV-1 RT; assay: HIV-1 RT inhibition assay; format: biochemical

SMILES | IC50 at 48 h (in vitro) [µM] | IC50 [1] [µM] | IC50 [2] [µM] | Selectivity index SI = IC50(normal cell)/IC50(cancer cell line) [3] | Selectivity index SI = IC50(normal cell)/IC50(cancer cell line) [4] | IC50 [5] [µM] | Selectivity index SI = IC50(normal cell)/IC50(cancer cell line) [6] | IC50 (A549 (Lung carcinoma) [7]) [µM] | IC50 (S102 (Thai liver cancer) [8]) [µM] | Selectivity index SI = IC50(normal cell)/IC50(cancer cell line) [9] | Selectivity index SI = IC50(normal cell)/IC50(cancer cell line) [10] | IC50 [11] [µM] | Selectivity index SI = IC50(normal cell)/IC50(cancer cell line) (A549 (Lung carcinoma) [12]) | IC50 [13] [µM] | Selectivity index SI = IC50(normal cell)/IC50(cancer cell line) (HL-60 (promyeloblast) [14]) | IC50 [15] [µM] | Selectivity index SI = IC50(normal cell)/IC50(cancer cell line) (HepG2 (Hepatocarcinoma) [16]) | Selectivity index SI = IC50(normal cell)/IC50(cancer cell line) (S102 (Thai liver cancer) [17]) | IC50 (HL-60 (promyeloblast) [20]) [µM] | IC50 (HepG2 (Hepatocarcinoma) [21]) [µM] | other results
O=C1Nc2ccc(Cl)cc2[C@@](C#CC2CC2)(C(F)(F)F)O1 [EFV, efavirenz, reference compound] | 95.6 ± 6 |  |  |  |  |  |  |  |  |  |  |  |  |  |  |  |  |  |  |  | 
Cc1cc(C#N)cc(C)c1Oc1cc(Oc2c(C)cc(C#N)cc2C)c2cnccc2n1 [Compound 13b, 2,4-di-(2ˊ,6ˊ-dimethyl-4ˊ-cyanophenoxy)−1,6-naphthyridine] | > 119 | 34.1 ± 2.2 | 24.4 ± 2.5 | > 1.56 | > 4.87 | 73.2 ± 8.1 | > 3.49 | 36.1 ± 0.6 | 103 ± 4.4 | > 1.62 | > 10.52 | 76 ± 6.54 | > 3.29 | 11.3 ± 2.2 | > 1.46 | 32.4 ± 2.7 | > 1.59 | > 1.15 | 81.5 ± 19.5 | 74.7 ± 13.3 | Percentage cytotoxicity [18]: 43%; toxicity toward normal embryonic lung cells (MRC-5), in words [18]: non-toxic; Selectivity index SI = IC50(normal cell)/IC50(cancer cell line) [19]: > 3.67
Cc1ccnc2c1NC(=O)c1cccnc1N2C1CC1 [NVP, nevirapine, reference compound] | > 188 | > 188 | > 188 |  |  | > 188 |  | > 188 | > 188 |  |  | > 188 |  | > 188 |  | > 188 |  |  | > 188 | > 188 | Percentage cytotoxicity [3]: 8%; Percentage cytotoxicity [4]: 34%; Percentage cytotoxicity [6]: 14%; Percentage cytotoxicity [9]: 9%; Percentage cytotoxicity [10]: 29%; Percentage cytotoxicity (A549 (Lung carcinoma) [12]): 18%; Percentage cytotoxicity (HL-60 (promyeloblast) [14]): 3%; Percentage cytotoxicity (HepG2 (Hepatocarcinoma) [16]): 15%; Percentage cytotoxicity (S102 (Thai liver cancer) [17]): 3%; Percentage cytotoxicity [18]: 1%; Percentage cytotoxicity [19]: 11%
Cc1cc(C#N)cc(C)c1Oc1cc(Oc2c(C)cc(C#N)cc2C)c2ccncc2n1 [Compound 14b, 2,4-di-(2ˊ,6ˊ-dimethyl-4ˊ-cyanophenoxy)−1,7-naphthyridine] | > 119 | > 119 | > 119 |  |  | > 119 |  | > 119 | > 119 |  |  | > 119 |  | > 119 |  | > 119 |  |  | > 119 | > 119 | Percentage cytotoxicity [3]: 0%; Percentage cytotoxicity [4]: 24%; Percentage cytotoxicity [6]: 0%; Percentage cytotoxicity [9]: 22%; Percentage cytotoxicity [10]: 16%; Percentage cytotoxicity (A549 (Lung carcinoma) [12]): 8%; Percentage cytotoxicity (HL-60 (promyeloblast) [14]): 24%; Percentage cytotoxicity (HepG2 (Hepatocarcinoma) [16]): 34%; Percentage cytotoxicity (S102 (Thai liver cancer) [17]): 6%; Percentage cytotoxicity [18]: 0%; toxicity toward normal embryonic lung cells (MRC-5), in words [18]: non-toxic; Percentage cytotoxicity [19]: 0%
Cc1cc(C#N)cc(C)c1Oc1cc(Nc2ccc(C#N)cn2)nc2ccccc12 [4-(2’,6’-dimethyl-4’-cyanophenoxy)−2-(5’’-cyanopyridin-2’’ylamino)quinoline] |  |  |  |  |  |  |  |  |  |  |  |  |  |  |  |  |  |  |  |  | percentage inhibition against HIV-1 RT (HIV-1 RT [22]; quinolines of the previous publication): 45% and 45.1%; IC50 (HIV-1 RT [22]; read-out: IC50 against HIV-1 RT, quinolines of the previous publication): 1.22 µM
Cc1cc(C=O)cc(C)c1Oc1cc(Oc2c(C)cc(C=O)cc2C)c2cnccc2n1 [Compound 13a, 2,4-di-(2ˊ,6ˊ-dimethyl-4ˊ-formylphenoxy)−1,6-naphthyridine] | 68.1 ± 1.1 | 35.9 ± 2.1 | 24.1 ± 0.4 | 0.74 | 2.83 | 56.3 ± 3.7 | 1.90 | 107 ± 2.6 | 69.8 ± 2.8 | 1.21 | 6.03 | 91.8 ± 2.9 | 0.64 | 11.3 ± 2.7 | 3.98 | 42.2 ± 2.6 | 1.12 | 0.98 | 17.1 ± 2.4 | 60.7 ± 1 | Selectivity index SI = IC50(normal cell)/IC50(cancer cell line) [19]: 1.61
Cc1cc(/C=C/C#N)cc(C)c1Nc1ccnc(Nc2ccc(C#N)cc2)n1 [RPV, rilpivirine, reference compound] | > 137 |  |  |  |  |  |  | > 137 |  |  |  |  |  | 4.3 ± 0.5 |  |  |  |  |  |  | Percentage cytotoxicity (A549 (Lung carcinoma) [12]): 42%; Percentage cytotoxicity [18]: 14%; IC50 (HIV-1 RT [23]): 0.063 µM; inhibition at 1 µM (HIV-1 RT [23]; read-out: Inhibitory activity (%) against HIV-1 RT): 97.1%
Cc1cc(C=O)cc(C)c1Oc1cc(Oc2c(C)cc(C=O)cc2C)c2ccncc2n1 [Compound 14a, 2,4-di-(2ˊ,6ˊ-dimethyl-4ˊ-formylphenoxy)−1,7-naphthyridine] | 65.3 ± 2.1 | 26.1 ± 5 | 12.2 ± 0.7 | 1.25 | 5.35 | 49.4 ± 6.7 | 2.50 | 60.8 ± 1 | 67.6 ± 2.2 | 1.32 | 6.80 | 52.2 ± 1.6 | 1.07 | 9.6 ± 1.1 | 6.28 | 21.7 ± 1.6 | 1.21 | 0.97 | 10.4 ± 0.8 | 53.9 ± 3.4 | Selectivity index SI = IC50(normal cell)/IC50(cancer cell line) [19]: 3.01
N#Cc1ccc(Nc2cc(Oc3ccc(C#N)cc3)c3ccccc3n2)cc1 [4-(4’-cyanophenoxy)−2-(4’’-cyanophenyl)-aminoquinoline] |  |  |  |  |  |  |  |  |  |  |  |  |  |  |  |  |  |  |  |  | percentage inhibition against HIV-1 RT (HIV-1 RT [22]; previous study): 39.71%
COc1cccc2c1C(=O)c1c(O)c3c(c(O)c1C2=O)C[C@@](O)(C(=O)CO)C[C@@H]3O[C@H]1C[C@H](N)[C@H](O)[C@H](C)O1 [doxorubicin, reference compound] | 3.1 ± 0.5 | 1.2 | 0.4 | 0.09 | 7.75 | 2.5 ± 0.1 | 2.58 | 0.6 ± 0.1 | 2.2 | 1.24 | 155 |  | 5.17 | 0.02 | 31 | 0.9 ± 0.1 | 5.17 | 1.41 | 0.1 | 0.6 ± 0.02 | Selectivity index SI = IC50(normal cell)/IC50(cancer cell line) [19]: 3.44
COc1cc([C@@H]2c3cc4c(cc3[C@@H](O[C@@H]3O[C@@H]5CO[C@@H](C)O[C@H]5[C@H](O)[C@H]3O)[C@H]3COC(=O)[C@H]23)OCO4)cc(OC)c1O [etoposide, reference compound] |  |  |  |  |  |  |  |  |  |  |  |  |  | 0.03 ± 0.02 |  |  |  |  | 0.8 ± 0.1 |  | 
